Experimental findings from US5187165A, “Memory enhancing and analgesic 1,2,3a,8,8a-hexahydro-3a,8(and 1,3a,8)-di(and tri)methylpyrrolo[2,3-b]indoles” (priority 1988, dated 1993) are described below.

Structures can show the parent of a compound that is named as a salt.

The nature of one data set: Acute toxicity (LD50). In kind it is in vivo. The settings on record: death within 24 hours; for LD50 at 24 h: in vivo, ip; for LD50: i.p., 1440 min. On the procedure: LD50 is determined by the dose (mg/kg) at which 50% of the test animals die within 24 hours. In many cases this dose is an approximation.
For data set [1], the target named is T1, acetylcholinesterase (Brain AChE) (Rattus norvegicus, UniProt P37136).
T1 construct: corpora striata dissected free, weighed and homogenized in 19 volumes; from tissue; host or cells: corpora striata of male Wistar rats, crude homogenate in phosphate buffer
T1 sequence (P37136 32-614): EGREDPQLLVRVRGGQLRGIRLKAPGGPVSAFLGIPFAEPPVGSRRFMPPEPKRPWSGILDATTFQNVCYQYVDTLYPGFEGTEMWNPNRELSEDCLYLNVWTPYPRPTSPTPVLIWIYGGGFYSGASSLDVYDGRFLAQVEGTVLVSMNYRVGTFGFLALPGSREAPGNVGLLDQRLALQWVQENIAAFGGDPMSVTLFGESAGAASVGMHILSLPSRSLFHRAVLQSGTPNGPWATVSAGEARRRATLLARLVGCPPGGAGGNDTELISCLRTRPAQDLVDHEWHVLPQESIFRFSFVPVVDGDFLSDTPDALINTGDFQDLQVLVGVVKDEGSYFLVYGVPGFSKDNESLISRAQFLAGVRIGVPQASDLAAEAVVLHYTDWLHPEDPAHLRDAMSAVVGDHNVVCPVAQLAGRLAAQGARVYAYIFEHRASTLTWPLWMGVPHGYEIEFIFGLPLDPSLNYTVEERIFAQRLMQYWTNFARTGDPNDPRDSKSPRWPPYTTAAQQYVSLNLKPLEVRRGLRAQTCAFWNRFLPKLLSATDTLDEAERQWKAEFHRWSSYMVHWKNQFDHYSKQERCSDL
As to the kind of experiment: In Vitro Inhibition of Acetylcholinesterase Activity in Rat Striatum. In kind it is biochemical. The text has this:
(§1) Cholinesterases are found throughout the body, both in the brain and in serum. However, only brain acetylcholinesterase (AChE) distribution is correlated with central cholinergic innervation. […] We have determined in vitro inhibition of acetylcholinesterase activity in rat striatum and in vitro inhibition of butrylcholinesterase activity in human serum according to the methods described below.
The method described below was used in this invention for assaying cholinesterase activity. This is a modification of the method of Ellman et al., Biochem. Pharmacol. 7, 98 (1961).
1. 0.05M Phosphate buffer, pH 7.2
(§2) (a) 9.9 mg 5,5-dithiobisnitrobenzoic acid (DTNB) (0.25 mM)
(b) 99 mg s-acetylthiocholine chloride (5 mM)
(§3) (c) q.s. to 100 ml with 0.05M phosphate buffer, pH 7.2 (reagent 1)
Male Wistar rats are decapitated, brains rapidly removed, corpora striata dissected free, weighed and homogenized in 19 volumes (approximately 7 mg protein/ml) of 0.05M phosphate buffer, pH 7.2 using a Potter-Elvehjem homogenizer. A 50 microliter aliquot of the homogenate is added to 50 microliter vehicle of various concentrations of the test drug and preincubated for 10 minutes at room temperature.
1. For routine IC50 determinations the Abbott Bichromatic Analyzer, ABA-100, is used to determine acetylcholinesterase activity.
Incubation temperature: 30° C.
Following the 10 minute preincubation of the tissue (enzyme) with the inhibitor, the samples are mixed with the substrate chromogen buffer by the ABA-100. Using the indicated instrument settings the ABA-100 automatically reads the color reaction and prints out the results in enzyme units after 15 minutes.
2. The enzyme activity can also be measured with Gilford 250 spectrophotometer. This method is used for more accurate kinetic measurments.
Reagents are added to the reference and sample side of a split curvette as follows.
The uninhibited activity of the enzyme (tissue homogenate) is first determined. Test drugs are made up in a suitable solvent and added in suitable dilutions to the buffer vehicle. The reaction rate is determined by the slope of the recorded absorbance change. The actual rate (moles/liter/min) can be calculated as described in the following formula
rate(moles/liter/min)=slope/(1.36×10^4).

Data set [2] relates to tetrabenazine-induced ptosis. Description: Prevention of Tetrabenazine-Induced Ptosis In Mice (TBZ). It is filed as in vivo. The text has this: Tetrabenazine (TBZ) induces behavioral depression with concomitant ptosis in mice similar to reserpine. Antidepressant compounds, both monoamineoxidase inhibitors and tricyclics, are known to prevent or antagonize these effects and the degree of antagonism correlates with clinical efficacy. The prevention of TBZ-induced ptosis in mice is used as a preliminary screen for possible antidepressant activity. The method used in this invention is as follows:
Male mice weighing 20 to 30 grams are used in test groups of five subjects. All compounds are dissolved or suspended with a suitable surfactant in distilled water and administered in volumes of 10 ml/kg of body weight. TBZ solution is made from the methanesulfonate salt and the concentration is adjusted to enable administration of 60 mg/kg of base by intraperitoneal (i.p.) injection.
The pretreatment time is measured from the time of dosing to observation. Therefore, when a […] pretreat is utilized, drug and TBZ are given simultaneously. A control group receives solvent and TBZ at intervals identical to drug group. For a primary screen, the drug is administered i.p. and a group size of five is utilized. Eight animals/group are used for a dose range.
Thirty minutes after TBZ, the subjects are placed in individual plastic containers (10.5×8×6 inches) in the presence of white noise and one minute after the transfer, they are scored for ptosis on the following scale: Eyes closed=4, eyes 3/4 closed=3, eyes 1/2 closed=2, eyes 1/4 closed=1, eyes open=0. The total score for each group of five in a primary screen will, therefore, be from 0 to 20 and these scores are used as indications of drug activity.
The vehicle control group score is used as a determinant of the validity of each test. If the control score is less than 17, the results are discarded and the test repeated. The calculation of percent inhibition of ptosis is: [formula]
Linear regression analysis is used to estimate ED50 values and 95% confidence intervals.

A further data set relates to yohimbine toxicity. As to the kind of experiment: animal or person. The conditions noted are these: for ED50: Mus musculus, po, 18 h, read-out: YTP ED50. It is filed as in vivo, mice. On the procedure:
The potentiation of yohimbine toxicity is considered an additional test for screening antidepressant drugs. The method used in this invention is as follows:
Male mice weighing 20 to 30 grams are used. They are housed under standard laboratory conditions with free access to food and water. Compounds are dissolved in distilled water and a suitable surfactant is added in case of poor solubility. Yohimbine hydrochloride is dissolved in distilled water as well. Both compound and yohimbine are administered in a volume of […].
Compounds and vehicle are administered orally 60 minutes prior to a sublethal dose (30 mg/kg s.c.) of yohimbine hydrochloride which alone causes death in about […] of mice (4 out of 400). Ten mice per group are then placed in plastic cages (26×10×16 cm) with food and water available ad libitum. Mortality rate is assessed 18 hours postdosing. ED50 is defined as dose of drug causing death in 5/10 mice and is calculated by probit analysis.

Data set [3] deals with T2, butyrylcholinesterase (Serum AChE) (Homo sapiens, UniProt P06276).
T2 construct: A vial of lyophilized human serum; purchased Biodynamics, Houston, Tex; (Precilip); host or cells: lyophilized human serum, reconstituted in water; enzyme not purified
T2 sequence (P06276 29-602): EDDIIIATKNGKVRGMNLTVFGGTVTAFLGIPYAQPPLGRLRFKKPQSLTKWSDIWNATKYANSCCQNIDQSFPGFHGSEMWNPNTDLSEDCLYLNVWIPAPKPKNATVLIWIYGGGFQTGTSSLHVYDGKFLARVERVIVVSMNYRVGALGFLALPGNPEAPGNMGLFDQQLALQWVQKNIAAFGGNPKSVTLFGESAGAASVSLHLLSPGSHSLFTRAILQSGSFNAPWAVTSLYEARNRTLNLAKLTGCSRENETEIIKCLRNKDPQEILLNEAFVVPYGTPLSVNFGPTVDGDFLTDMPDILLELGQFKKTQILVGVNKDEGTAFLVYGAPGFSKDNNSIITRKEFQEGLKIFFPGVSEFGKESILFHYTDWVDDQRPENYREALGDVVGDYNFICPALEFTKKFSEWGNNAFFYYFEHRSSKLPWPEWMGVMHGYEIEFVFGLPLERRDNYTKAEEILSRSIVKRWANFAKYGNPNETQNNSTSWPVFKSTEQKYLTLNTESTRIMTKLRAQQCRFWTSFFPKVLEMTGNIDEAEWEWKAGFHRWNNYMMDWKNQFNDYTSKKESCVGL
As to the kind of experiment: In Vitro Inhibition of Butyrylcholinesterase Activity in Human Serum. It is filed as biochemical.
Source text: as §1
This assay can be used in conjunction with the acetylcholinesterase assay to determine the enzyme selectivity of various chloinesterase inhibitors.
Butyrylcholinesterase (BChE), which is sometimes called pseudocholinesterase, preferentially hydrolyzes butyrylcholine. This enzyme is found in the highest amounts in serum, but its physiological role is not known.
as §2
(b) 113 mg s-butyrylthiochloine chloride (5 mM)
as §3
A vial of lyophilized human serum (Precilip, Biodynamics, Houston, Tex. is reconstituted in 3 ml of distilled water. A 10 microliter aliquot of this suspension is added to 90 microliter of the vehicle or various concentrations of the test drug and preincubated for 10 minutes at room temperature.
Substantially the same procedure is used as described above in Section C of the Procedure used for determining the inhibition of acetylcholinsterase activity.

In data set [4] the test system is scopolamine-induced memory deficit. As to the kind of experiment: Dark Avoidance Assay (scopolamine induced memory deficit reversal). It is filed as in vivo, mice. The settings on record: Mus musculus, sc, 24 h, read-out: % of Animals with Scopolamine Induced Memory Deficit Reversal. The procedure: In this assay mice are tested for their ability to remember an unpleasant stimulus for a period of 24 hours. A mouse is placed in a chamber that contains a dark compartment; a strong incandescent light drives it to the dark compartment, where an electric shock is administered through metal plates on the floor. The animal is removed from the testing apparatus and tested again, 24 hours later, for the ability to remember the electric shock.
If scopolamine, an anticholinergic that is known to cause memory impairment, is administered before an animal's initial exposure to the test chamber, the animal re-enters the dark compartment shortly after being placed in the test chamber 24 hours later. This effect of scopolamine is blocked by an active test compound, resulting in a greater interval before re-entry into the dark compartment.
The results for an active compound are expressed as the percent of a group of animals in which the effect of scopolamine is blocked, as manifested by an increased interval between being placed in the test chamber and re-entering the dark compartment.

The next data set concerns norepinephrine uptake. In kind it is biochemical. The settings on record: rat brain synaptosomes, 50 nM 3H-NE, 37° C., 5 min; read-out: Reuptake Inhibition of neurotransmitters, Norepinephrine.

For orientation: LD50 means the dose at which mortality reaches 50%. Low values mean a more toxic substance, high ones a less toxic substance. For orientation: ED50 means the dose at which the effect has come halfway, by size or by number of responders.

Consider `C[C@@H](NC(=O)Oc1ccc2c(c1)[C@]1(C)CCN(C)[C@@H]1N2C)c1ccccc1` (relative stereo) [(3aS-cis)-1,2,3,3a,8,8a-Hexahydro-1,3a,8-trimethylpyrrolo[2,3-b]indol-5-ol,[(R*)-(1-phenyl)ethyl] carbamate ester], for which the LD50 at 24 h in “Acute toxicity (LD50)” is approximately 40 mg/kg. Besides, the IC50 in data set [1] was 1.2 µM; in data set [3], 0.9 µM; in the data set with norepinephrine uptake it was 12 µM. For the same molecule, the “% Inhibition, TBZ” value in data set [2] (20 mg/kg) came out at 50%. In addition, in the data set with yohimbine toxicity, the ED50 was found to be 16.1 mg/kg. For the same molecule, the responders at 1.25 mg/kg in data set [4] turned out to be 67%.

`C[C@H](NC(=O)Oc1ccc2c(c1)[C@]1(C)CCN(C)[C@@H]1N2C)c1ccccc1` (relative stereo) [(3aS-cis)-1,2,3,3a,8,8a-Hexahydro-1,3a,8-trimethylpyrrolo[2,3-b]indol-5-ol,[(S*)-(1-phenyl)ethyl] carbamate ester] had an LD50 in “Acute toxicity (LD50)” of less than 80 mg/kg. Moreover, the LD50 at 24 h in the data set “Acute toxicity (LD50)” is more than 40 mg/kg. In addition, the results for the IC50 (in data set [1]; in data set [3]; in the data set on norepinephrine uptake) were 3.1 µM, more than 1000 µM and 2.2 µM, respectively. The “% Inhibition, TBZ” value in data set [2] (20 mg/kg) is 35%. Moreover, in the data set on yohimbine toxicity, the ED50 stood at 30 mg/kg. The responders at 0.31 mg/kg in data set [4] amounted to 20%.

As to `CCC1CCC(NC(=O)Oc2ccc3c(c2)[C@]2(C)CCN(C)[C@@H]2N3C)CC1` (stereo partly drawn) [(3aS-cis)-1,2,3,3a,8,8a-Hexahydro-1,3a,8-trimethylpyrrolo[2,3-b]indol-5-ol,4-ethylcyclohexyl carbamate ester], the IC50 in the data set with norepinephrine uptake worked out at 2.6 µM.

`CN1CC[C@@]2(C)c3cc(OC(=O)Nc4ccncc4)ccc3N(C)[C@@H]12` [(3aS-cis)-1,2,3,3a,8,8a-Hexahydro-1,3a,8-trimethylpyrrolo[2,3-b]indol-5-ol,4-pyridinyl carbamate ester] gave an LD50 at 24 h in “Acute toxicity (LD50)” of approximately 40 mg/kg. In data set [4], the responders at 0.31 mg/kg is 27%. In the data set on norepinephrine uptake, the IC50 was more than 20 µM.

Consider `CN1CC[C@@]2(C)c3cc(OC(=O)NC45CC6CC(CC(C6)C4)C5)ccc3N(C)[C@@H]12` [(3aS-cis)-1,2,3,3a,8,8a-Hexahydro-1,3a,8-trimethylpyrrolo[2,3-b]indol-5-ol,(1-adamantyl)carbamate ester], for which the IC50 in data set [1] is 3.05 µM; in data set [3] it was more than 100 µM. Besides, the responders at 1.25 mg/kg in data set [4] was found to be 27%.

`CN1CC[C@@]2(C)c3cc(OC(=O)N4CC5CCC(CC5)C4)ccc3N(C)[C@@H]12` [(3aS-cis)-1,2,3,3a,8,8a-Hexahydro-1,3a,8-trimethylpyrrolo[2,3-b]indol-5-ol,[3-[3-azabicyclo[3.2.2]nonyl]]carbamate ester fumarate]: the IC50 in data set [1] was 0.84 µM; in data set [3] it was more than 1000 µM. Moreover, the responders at 5 mg/kg in data set [4] worked out at 33%.

On to `CN1CC[C@@]2(C)c3cc(OC(=O)NC4CCCCCCCCCCC4)ccc3N(C)[C@@H]12` [(3aS-cis)-1,2,3,3a,8,8a-Hexahydro-1,3a,8-trimethylpyrrolo[2,3-b]indol-5-ol,cyclododecyl carbamate ester], for which the IC50 in data set [1] is 0.41 µM; in data set [3], more than 1000 µM.

`CN1CC[C@@]2(C)c3cc(OC(=O)NC4CCCCC4)ccc3N(C)[C@@H]12` [(3aS-cis)-1,2,3,3a,8,8a-Hexahydro-1,3a,8-trimethylpyrrolo[2,3-b]indol-5-ol,cyclohexyl carbamate ester] showed an LD50 in “Acute toxicity (LD50)” of less than 10 mg/kg. Further, the LD50 at 24 h in “Acute toxicity (LD50)” was more than 5 mg/kg. In addition, the IC50 in data set [1] was 0.9 µM; in data set [3], more than 1000 µM. The “% Inhibition, TBZ” value in data set [2] (1.25 mg/kg) is given as 20%. Further, in data set [4], the responders at 0.16 mg/kg turned out to be 31%.

Take `COC(=O)[C@@H]1[C@H]2C[C@H]3c4[nH]c5ccccc5c4CCN3C[C@@H]2CC[C@@H]1O` [yohimbine hydrochloride, reference compound]: the “death in mice of yohimbine hydrochloride alone” value in the data set on yohimbine toxicity (30 mg/kg s.c., alone (4 out of 400 mice)) is “about 1%”.
